The values below come from US6723702B2, “Use of relaxin treat diseases related to vasoconstriction” (RAS Medical, Inc., priority 2000, dated 2004).

Test [1] deals with Female Sprague-Dawley rats. As to the kind of experiment: Kidney function in cyclosporine-treated rats. In kind it is in vivo, rat. Particulars: for GFR / Urine Flow: Normal = 1.0. On the procedure: Relaxin (rhRlx) was administrated via subcutaneous pumps at dose of either 0.1 mg/kg/day or 0.5 mg/kg/day for 10 days (day 0-10). On day B2 (baseline), Day 4, and Day 9, all rats were put into metabolic cages. The 24-hour urine volume was measured to calculate urine flow rate using the following formula: […]
Blood and urine were collected for creatinine measurement to calculate the GFR using the following formula: […]

Test [2] concerns bFGF and VEGF protein staining, peri-infarct area of the heart. In words: Rat LCAL model: immunohistochemical analysis of the peri-infarct area. The format is in vivo. On the procedure: Immunohistochemical analysis of the peri-infarct area of the heart was performed as follows. Transverse sections from paraffin embedded hearts were obtained at 3 levels. Sections were stained with H&E to assess neovascularization. Slides of heart sections were deparaffinized in xylene and washed with ethanol. Slides were then rinsed in sterile double distilled water before proceeding with antigen retrieval, as recommended by the antibody vendor (Biogenex). Sections were incubated for 30 minutes in 1.5% normal goat blocking serum (Biogenex, San Ramon, Calif.) and washed three times for 5 minutes each with PBS. Sections were then incubated with a monoclonal antibody against VEGF (VEGF-C1), or a polyclonal antibody against bFGF (FGF-2-147) (both at 5 μg/ml), before washing with PBS. Primary, and anti-goat or anti-rabbit secondary antibodies were purchased from Santa Cruz Biotechnology (Santa Cruz, Calif.). Sections were then incubated in multilink, a biotinylated goat anti-immunoglobulin for use with mouse, rabbit, guinea pig and rat primary antibodies (Biogenex) for 30 minutes at room temperature, followed by washing twice for 10 minutes each with PBS. Sections were labeled with peroxidase conjugated streptavidin for 20 minutes before finally washing twice for 5 minutes with PBS and air-drying). […]

Test [3] relates to rat VEGF164, VEGF120 and bFGF mRNA in peri-infarct area of rat hearts. As to the kind of experiment: Rat myocardial infarct (LCAL) model: quantitative RT-PCR of VEGF and bFGF. In kind it is in vivo. On the procedure: Female Sprague Dawley rats, approximately 12-weeks of age were used. Rats were anesthetized by intraperitoneal (i.p.) injection of up to 1 ml/kg ketamine/medetomidine (6:4). Following exteriorization of the heart, the left coronary artery was ligated near its origin with a silk suture. In sham surgery control animals, the suture was placed superficially into the muscle adjacent to the coronary artery. Post-closure EKG's were monitored for S-T segment elevation in LCAL animals to confirm the outcome of ligation. Immediately following cardiac surgery, a primed mini-osmotic pump containing relaxin or vehicle (20 mM acetate, pH 5.0) was aseptically implanted into a subcutaneous (s.c.) pocket on the dorsal interscapular region. Vehicle or relaxin (0.1 mg/kg/day) was delivered as a continuous s.c. infusion for 7 or 21 days to either sham or LCAL animals. Animals were terminated on day 7 or 21, and the peri-infarct regions anterior to the scar in the left ventricle, or equivalent sites on sham surgery animals were harvested.
The left coronary artery ligation (LCAL) model of myocardial ischemia in the rat (Selye et al. (1960) Angiology 11:398-407) caused profound, acute damage, involving up to 50% of the left ventricular free wall. Following systemic relaxin treatment, using rhRLX, tissue RNA was examined at 7 and 21 days post-infarction for persistent changes in VEGF and bFGF. Cells in the immediate margins surrounding the infarct were sampled to assess angiogenic cytokine expression, using quantitative RT-PCR analysis. Oligonucleotide primers and TaqMan probes, shown in Table 8, were purchased from BioSource International Inc.(Camarillo, Calif.), or PE Applied Biosystems for use with the ABI Prism^7 7700 Sequence Detection System (quantitative PCR) (PE Applied Biosystems).
Oligonucleotides were designed to rat or human bFGF, human VEGF165 amino acid or 121 amino acid isoforms, and their respective rat homologues (VEGF164 and VEGF120), and human HGF (for use with the PE Applied Biosystems “GeneAmp PCR System 9600”). Rat and human GAPDH primers and probes were purchased from BioSource International Inc. and PE Applied Biosystems, respectively. Tissue samples and monolayer cells were suspended in RNA STAT-60 (Tel-Test, Inc., Friendswood, Tex.) and processed following vendor instructions. Reverse transcription-polymerase chain reaction (RT-PCR) was performed using either rat or human total RNA as template. 150 ng of total RNA was used for the analysis of VEGF, bFGF and HGF mRNA expression; 10 ng of total RNA was used for GAPDH mRNA expression. Reverse transcription-polymerase chain reaction (RT-PCR) reagents were purchased from PE Biosystems (Foster City, Calif.).
RNA was extracted from peri-infarct regions of rat hearts following LCAL or an analogous area of sham hearts. […]

The test system of test [4] is Alveolar macrophages or spleen cells. As to the kind of experiment: VEGF expression by RT-PCR in non-wound macrophages and immune cells. In kind it is in vivo, rat. Particulars: following relaxin treatment. An excerpt:
Resident macrophages and immune cells from other non-wound sources were also harvested from vehicle- and relaxin-treated rats, and assayed for VEGF expression by RT-PCR.

Setting [5] is: CsA and rhRlx at either 0.1 mg/kg or 0.5 mg/kg.
[6] abbreviates: Normal rats + 0.5 mg/kg, Day 10.

For the substance “rhRLX: recombinant human relaxin, identical in amino acid sequence to the product of the human H2 gene; A chain of 24, B chain of 29 amino acids”, the GFR in test [1] (CsA + 0.1 mg/kg, Day 5) was found to be 0.99 ± 0.15; in test [1] (CsA + 0.1 mg/kg, Day 10), 1.49 ± 0.18; in test [1] (CsA + 0.5 mg/kg, Day 5) it was 1.231 ± 0.15; in test [1] (CsA + 0.5 mg/kg, Day 10), 1.39 ± 0.13; in test [1] (Normal rats + 0.5 mg/kg, Day 5) it was 1.47 ± 0.08; in test [1] (setting [6]) it was 1.50 ± 0.09. For the same substance, the “Urine Flow” value is given as 1.21 ± 0.36 in test [1] (CsA + 0.1 mg/kg, Day 5); 1.59 ± 0.41 in test [1] (CsA + 0.1 mg/kg, Day 10); 1.27 ± 0.16 in test [1] (CsA + 0.5 mg/kg, Day 5); 1.067 ± 0.11 in test [1] (CsA + 0.5 mg/kg, Day 10); 1.68 ± 0.02 in test [1] (Normal rats + 0.5 mg/kg, Day 5); 1.42 ± 0.01 in test [1] (setting [6]). The “creatinine clearance compared to animals treated with CsA alone” value in test [1] (setting [5]) is listed as “significantly improved”. In addition, the “urine flow rate compared to animals treated with CsA alone” value in test [1] (setting [5]) is “significantly improved”. Further, in test [1] (normal rats, 0.5 mg/kg, day 5), the “creatinine clearance compared to the baseline” value was 147%. Moreover, in test [1] (normal rats, 0.5 mg/kg, day 5), the “urine flow rate compared to the baseline” value was 168%. Further, in test [2] (7 and 21 days, vs vehicle-treated hearts, blinded scoring), the “peri-infarct bFGF staining” value was “more intense”. In addition, the “intensity of VEGF staining” value in test [2] (relaxin vs vehicle-treated hearts) is listed as “No differences in intensity”. Moreover, the “increase in peri-infarct bFGF expression (mRNA)” value in test [3] (0.1 mg/kg/day s.c., both 7 and 21 days, vs vehicle-treated infarcted hearts) was 2 fold. In addition, the “relative expression of either VEGF isoform, peri-infarct regions” value in test [3] (0.1 mg/kg/day, day 7) is given as “no changes”. Besides, the “relative levels of VEGF164 and VEGF120 transcripts” value in test [3] (0.1 mg/kg/day, day 21) was “trend towards an increase”. Also, the “VEGF or bFGF mRNA expression” value in test [3] (sham surgery animals) is “no effect”. Further, the VEGF expression result in test [4] is “did not show an upregulation”.
